According to US20130157954A1, “METHODS FOR TREATMENT OR PROPHYLAXIS OF KIDNEY OR LIVER DYSFUNCTION” (NPS PHARMACEUTICALS, INC., priority 2010, published 2013):

Assay: Example 1: liver biomarkers (total bilirubin, ALT, AST, ALP) in short bowel syndrome patients, every four weeks for 24 weeks; also sorted by >5% change from baseline
Type: in vivo, Human
Parameters: AST (SGOT) Change from Baseline Median / ALT (SGPT) Median / TOTAL BILIRUBIN Median / TOTAL BILIRUBIN Change from Baseline Median / ALT (SGPT) Change from Baseline Median / AST (SGOT) Median: unit not given here
Conditions: for AST (SGOT) Change from Baseline Median / AST (SGOT) Median / TOTAL BILIRUBIN Change from Baseline Median / TOTAL BILIRUBIN Median / ALKALINE PHOSPHATASE Change from Baseline Median / ALT (SGPT) Change from Baseline Median / ALT (SGPT) Median: 0.10 mg/kg/day; for ALKALINE PHOSPHATASE change from baseline <−5%, number of patients / ALKALINE PHOSPHATASE change from baseline <−5%, percent of patients / ALKALINE PHOSPHATASE change from baseline >5%, number of patients / ALKALINE PHOSPHATASE change from baseline >5%, percent of patients / ALKALINE PHOSPHATASE change from baseline −5% <= and <=5%, number of patients / ALKALINE PHOSPHATASE change from baseline −5% <= and <=5%, percent of patients / ALT (SGPT) change from baseline <−5%, number of patients / ALT (SGPT) change from baseline <−5%, percent of patients / ALT (SGPT) change from baseline >5%, number of patients / ALT (SGPT) change from baseline >5%, percent of patients / ALT (SGPT) change from baseline −5% <= and <=5%, number of patients / ALT (SGPT) change from baseline −5% <= and <=5%, percent of patients / AST (SGOT) change from baseline <−5%, number of patients / AST (SGOT) change from baseline <−5%, percent of patients / AST (SGOT) change from baseline >5%, number of patients / AST (SGOT) change from baseline >5%, percent of patients / AST (SGOT) change from baseline −5% <= and <=5%, number of patients / AST (SGOT) change from baseline −5% <= and <=5%, percent of patients / TOTAL BILIRUBIN change from baseline <−5%, number of patients / TOTAL BILIRUBIN change from baseline <−5%, percent of patients / TOTAL BILIRUBIN change from baseline >5%, number of patients / TOTAL BILIRUBIN change from baseline >5%, percent of patients / TOTAL BILIRUBIN change from baseline −5% <= and <=5%, number of patients / TOTAL BILIRUBIN change from baseline −5% <= and <=5%, percent of patients: 0.1 mg/kg/day
Experimental: Human patients with short bowel syndrome were divided into three groups: a control group (16 total individuals) to receive placebo, an experimental group (35 total individuals) to receive teduglutide at 0.05 mg/kg/day throughout the study, and an experimental group (32 total individuals) to receive teduglutide at 0.1 mg/kg/day throughout the study. Patients were treated by subcutaneous injection of placebo or the appropriate dose of teduglutide. As individuals with short bowel syndrome are likely to experience associated liver and kidney disease, known biomarkers of liver and kidney function were monitored every four weeks, for 24 weeks. The liver biomarkers tested included total bilirubin, ALT and AST and ALP. The kidney biomarkers tested included urea nitrogen, creatinine and GFR. Before administration of placebo or teduglutide, diagnostic biomarker levels were tested to establish a baseline for each individual.
To visualize the effect of GLP-2 on the levels of the diagnostic biomarkers, the average change from baseline was calculated for the placebo and teduglutide treated groups for each visit after a baseline was established. The average change from baseline of each group is depicted in FIGS. 1-7. The numerical figures for each diagnostic biomarker at each time point are depicted in Table 1.
The efficacy of teduglutide in treating liver dysfunction was further tested by sorting the data into two groups: individuals with abnormal baseline values of liver diagnostic biomarkers; and individuals with normal baseline values of liver diagnostic biomarkers. The mean diagnostic biomarker change from baseline for these two groups is shown for ALT (FIGS. 5 and 6) and AST (FIGS. 7 and 8). […] These changes were significant when compared to baseline levels for the group, and when compared to placebo (see FIGS. 5 and 7).
The raw data for this sorting is reproduced in Table 2 below.

## CC[C@H](C)[C@H](NC(=O)[C@H](Cc1ccccc1)NC(=O)[C@H](CC(=O)O)NC(=O)[C@H](CCCNC(=N)N)NC(=O)[C@H](C)NC(=O)[C@H](C)NC(=O)[C@H](CC(C)C)NC(=O)[C@H](CC(N)=O)NC(=O)[C@H](CC(=O)O)NC(=O)[C@H](CC(C)C)NC(=O)[C@@H](NC(=O)[C@@H](NC(=O)[C@H](CC(N)=O)NC(=O)[C@H](CCSC)NC(=O)[C@H](CCC(=O)O)NC(=O)[C@H](CC(=O)O)NC(=O)[C@H](CO)NC(=O)[C@H](Cc1ccccc1)NC(=O)[C@H](CO)NC(=O)CNC(=O)[C@H](CC(=O)O)NC(=O)CNC(=O)[C@@H](N)Cc1c[nH]cn1)[C@@H](C)O)[C@@H](C)CC)C(=O)N[C@@H](CC(N)=O)C(=O)N[C@@H](Cc1c[nH]c2ccccc12)C(=O)N[C@@H](CC(C)C)C(=O)N[C@H](C(=O)N[C@@H](CCC(N)=O)C(=O)N[C@H](C(=O)N[C@@H](CCCCN)C(=O)N[C@H](C(=O)N[C@H](C(=O)N[C@@H](CC(=O)O)C(=O)O)[C@@H](C)O)[C@@H](C)CC)[C@@H](C)O)[C@@H](C)CC [teduglutide]
DW4
  AST (SGOT) Change from Baseline Median: −5.0
  AST (SGOT) Median: 28.0
  TOTAL BILIRUBIN Change from Baseline Median: −1.0
  TOTAL BILIRUBIN Median: 7.0
DW8
  ALKALINE PHOSPHATASE Change from Baseline Median: −20.0
  ALT (SGPT) Change from Baseline Median: −8.0
  AST (SGOT) Change from Baseline Median: −5.0
  AST (SGOT) Median: 28.0
  TOTAL BILIRUBIN Change from Baseline Median: −1.0
  TOTAL BILIRUBIN Median: 7.0
DW12
  ALT (SGPT) Change from Baseline Median: −11.0
  ALT (SGPT) Median: 35.0
  AST (SGOT) Change from Baseline Median: −3.5
  TOTAL BILIRUBIN Change from Baseline Median: 0.0
  TOTAL BILIRUBIN Median: 7.0
DW16
  ALT (SGPT) Change from Baseline Median: −10.0
  ALT (SGPT) Median: 30.0
  AST (SGOT) Change from Baseline Median: −4.0
  AST (SGOT) Median: 30.0
  TOTAL BILIRUBIN Change from Baseline Median: −0.5
  TOTAL BILIRUBIN Median: 7.5
DW20
  ALKALINE PHOSPHATASE Change from Baseline Median: −23.0
  ALT (SGPT) Change from Baseline Median: −9.0
  ALT (SGPT) Median: 29.0
  AST (SGOT) Change from Baseline Median: −2.5
  AST (SGOT) Median: 30.0
  TOTAL BILIRUBIN Change from Baseline Median: 0.0
  TOTAL BILIRUBIN Median: 7.0
DW 24
  ALKALINE PHOSPHATASE Change from Baseline Median: −21.0
  ALT (SGPT) Change from Baseline Median: −4.0
  ALT (SGPT) Median: 37.0
  AST (SGOT) Change from Baseline Median: −3.0
  AST (SGOT) Median: 32.0
  TOTAL BILIRUBIN Change from Baseline Median: 0.0
  TOTAL BILIRUBIN Median: 9.0
Week 4
  ALKALINE PHOSPHATASE change from baseline <−5%, number of patients: 17
  ALKALINE PHOSPHATASE change from baseline <−5%, percent of patients: (53.1%)
  ALKALINE PHOSPHATASE change from baseline >5%, number of patients: 11
  ALKALINE PHOSPHATASE change from baseline >5%, percent of patients: (34.4%)
  ALKALINE PHOSPHATASE change from baseline −5% <= and <=5%, number of patients: 4
  ALKALINE PHOSPHATASE change from baseline −5% <= and <=5%, percent of patients: (12.5%)
  ALT (SGPT) change from baseline <−5%, number of patients: 20
  ALT (SGPT) change from baseline <−5%, percent of patients: (62.5%)
  ALT (SGPT) change from baseline >5%, number of patients: 10
  ALT (SGPT) change from baseline >5%, percent of patients: (31.3%)
  ALT (SGPT) change from baseline −5% <= and <=5%, number of patients: 2
  ALT (SGPT) change from baseline −5% <= and <=5%, percent of patients: (6.3%)
  AST (SGOT) change from baseline <−5%, number of patients: 17
  AST (SGOT) change from baseline <−5%, percent of patients: (53.1%)
  AST (SGOT) change from baseline >5%, number of patients: 10
  AST (SGOT) change from baseline >5%, percent of patients: (31.3%)
  AST (SGOT) change from baseline −5% <= and <=5%, number of patients: 4
  AST (SGOT) change from baseline −5% <= and <=5%, percent of patients: (12.5%)
  TOTAL BILIRUBIN change from baseline <−5%, number of patients: 16
  TOTAL BILIRUBIN change from baseline <−5%, percent of patients: (50.0%)
  TOTAL BILIRUBIN change from baseline >5%, number of patients: 12
  TOTAL BILIRUBIN change from baseline >5%, percent of patients: (37.5%)
  TOTAL BILIRUBIN change from baseline −5% <= and <=5%, number of patients: 3
  TOTAL BILIRUBIN change from baseline −5% <= and <=5%, percent of patients: (9.4%)
Week 8
  ALKALINE PHOSPHATASE change from baseline <−5%, number of patients: 24
  ALKALINE PHOSPHATASE change from baseline <−5%, percent of patients: (75.0%)
  ALKALINE PHOSPHATASE change from baseline >5%, number of patients: 5
  ALKALINE PHOSPHATASE change from baseline >5%, percent of patients: (15.6%)
  ALKALINE PHOSPHATASE change from baseline −5% <= and <=5%, number of patients: 2
  ALKALINE PHOSPHATASE change from baseline −5% <= and <=5%, percent of patients: (6.3%)
  ALT (SGPT) change from baseline <−5%, number of patients: 20
  ALT (SGPT) change from baseline <−5%, percent of patients: (62.5%)
  ALT (SGPT) change from baseline >5%, number of patients: 8
  ALT (SGPT) change from baseline >5%, percent of patients: (25.0%)
  ALT (SGPT) change from baseline −5% <= and <=5%, number of patients: 2
  ALT (SGPT) change from baseline −5% <= and <=5%, percent of patients: (6.3%)
  AST (SGOT) change from baseline <−5%, number of patients: 21
  AST (SGOT) change from baseline <−5%, percent of patients: (65.6%)
  AST (SGOT) change from baseline >5%, number of patients: 5
  AST (SGOT) change from baseline >5%, percent of patients: (15.6%)
  AST (SGOT) change from baseline −5% <= and <=5%, number of patients: 4
  AST (SGOT) change from baseline −5% <= and <=5%, percent of patients: (12.5%)
  TOTAL BILIRUBIN change from baseline <−5%, number of patients: 16
  TOTAL BILIRUBIN change from baseline <−5%, percent of patients: (50.0%)
  TOTAL BILIRUBIN change from baseline >5%, number of patients: 7
  TOTAL BILIRUBIN change from baseline >5%, percent of patients: (21.9%)
  TOTAL BILIRUBIN change from baseline −5% <= and <=5%, number of patients: 6
  TOTAL BILIRUBIN change from baseline −5% <= and <=5%, percent of patients: (18.8%)
Week 12
  ALKALINE PHOSPHATASE change from baseline <−5%, number of patients: 19
  ALKALINE PHOSPHATASE change from baseline <−5%, percent of patients: (59.4%)
  ALKALINE PHOSPHATASE change from baseline >5%, number of patients: 10
  ALKALINE PHOSPHATASE change from baseline >5%, percent of patients: (31.3%)
  ALKALINE PHOSPHATASE change from baseline −5% <= and <=5%, number of patients: 1
  ALKALINE PHOSPHATASE change from baseline −5% <= and <=5%, percent of patients: (3.1%)
  ALT (SGPT) change from baseline <−5%, number of patients: 20
  ALT (SGPT) change from baseline <−5%, percent of patients: (62.5%)
  ALT (SGPT) change from baseline >5%, number of patients: 7
